# According to patent US12691101B2, “Compound and method for preventing or treating of respiratory diseases comprising the same as an active ingredient” (YONSEI UNIVERSITY, UNIVERSITY - INDUSTRY FOUNDATION (UIF), priority 2019, dated 2026):
# Target: T1, human wild-type (WT)-pendrin (Homo sapiens, UniProt O43511)
# T1 construct: expressed in transfected cells
# T1 sequence (O43511 1-780): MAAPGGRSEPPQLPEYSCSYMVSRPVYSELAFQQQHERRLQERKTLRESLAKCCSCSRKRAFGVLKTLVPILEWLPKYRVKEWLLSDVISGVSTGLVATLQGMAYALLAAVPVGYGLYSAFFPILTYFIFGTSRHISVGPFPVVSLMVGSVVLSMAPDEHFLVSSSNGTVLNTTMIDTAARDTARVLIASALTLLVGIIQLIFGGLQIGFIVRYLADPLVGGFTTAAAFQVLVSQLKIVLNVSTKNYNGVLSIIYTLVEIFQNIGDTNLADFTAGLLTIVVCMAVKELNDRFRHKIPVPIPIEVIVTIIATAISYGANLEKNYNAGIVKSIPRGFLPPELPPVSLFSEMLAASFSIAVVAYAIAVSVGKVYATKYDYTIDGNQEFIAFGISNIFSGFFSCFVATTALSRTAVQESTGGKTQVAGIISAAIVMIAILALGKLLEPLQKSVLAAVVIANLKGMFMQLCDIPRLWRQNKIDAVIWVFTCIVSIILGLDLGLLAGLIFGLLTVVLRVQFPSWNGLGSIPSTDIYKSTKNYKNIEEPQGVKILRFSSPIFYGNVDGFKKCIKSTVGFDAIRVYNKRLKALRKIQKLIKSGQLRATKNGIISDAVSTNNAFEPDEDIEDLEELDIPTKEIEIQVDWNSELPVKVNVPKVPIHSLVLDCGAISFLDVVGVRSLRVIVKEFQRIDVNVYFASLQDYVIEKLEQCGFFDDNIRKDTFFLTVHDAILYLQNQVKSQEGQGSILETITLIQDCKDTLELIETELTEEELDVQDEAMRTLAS
# Test: Pendrin-mediated Cl^−/I^− exchange activity, YFP fluorescence in CHO-K1 cells
# Type: cell-based
# Conditions: CHO-K1, 30 μM; read-out: Pendrin inhibitory activity at 30 μM (%)
# Procedure: Chinese hamster ovary (CHO)-K1 cells were maintained in a DMEM medium containing 10% fetal bovine serum (FBS), 100 units/ml penicillin and 100 100 μg/ml streptomycin. CHO-K1 cells were stably transfected with pcDNA3.1 encoding halide sensor YFP-H148Q/I152L/F46L and human wild-type (WT)-pendrin. For distribution of primary culture of human nasal cavity epithelium (HNE) cells, passage-2 cells were seeded into transwell-transparent culture inserts with a pore size of 0.45 μm (Costar Co., Cambridge, MA) at a density of 2×10^5 cells/cm^2. The cells were maintained in a 1:1 mixture of Dulbecco's modified Eagle's medium (Lonza, Walkersville, MD) and bronchial epithelial growth medium (Lonza) supplemented with the following growth factors according to the manufacturer's instructions. After immersing the cells for the first 7 days, they were exposed to the apical air interface for the remainder of the culture period. After establishment of the air-liquid interface, the cells were used between 14 and 21 days. At all stages of culture, the cells were maintained at 37° C. under 5% CO2 in an air incubator.
# CHO-K1 cells expressing human WT pendrin and YFP-F46L/H148Q/I152L were plated on a 96-well microplate at a density of 2×10^4 cells per well and cultured for 48 hours. Each well of the cell cultured 96-well plate was washed with PBS of 200 μL twice and was filled with HEPES buffer solution of 50 μL, respectively. […] After culturing at 37° C. for 10 minutes, the 96-well plate was positioned on FLUOstar Omega microplate reader (BMG Labtech, Ortenberg, Germany) for fluorescence analysis. By continuously (400 ms per point) recording fluorescence for 1 second (base line), each well was individually analyzed for pendrin-mediated I^− inflow, and then at 1 second, 50 μL of NaI-substituted HEPES buffer solution (NaI replacing NaCl) was added using a liquid injector and the YFP fluorescence was recorded for 5 seconds. The initial iodide inflow rate was determined from the initial slope of fluorescence by nonlinear regression, after injection the iodide (See FIG. 1).
# For measurement of Cl^−/I^− exchange activity, YFP fluorescence was measured in pendrin and halide sensor YFP expressing CHO-K1 cells. Each well of the cell cultured 96-well plate was washed with PBS of 200 μL twice, and was filled with HEPES buffer solution (140 mM NaCl, 5 mM KCl, 1 mM MgCl2, 1 mM CaCl2, 10 mM glucose and 10 mM HEPES (pH 7.4)), respectively. […] After culturing at 37° C. for 10 minutes, the 96-well plate was positioned on FLUOstar Omega microplate reader (BMG Labtech, Ortenberg, Germany) for fluorescence analysis.
# By continuously (400 ms per point) recording fluorescence for 1 second (base line), each well was individually analyzed for pendrin-mediated I^− inflow, and then at 1 second, 50 μL of NaI-substituted HEPES buffer solution (140 mM NaI, 5 mM KCl, 1 mM MgCl2, 1 mM CaCl2, 10 mM glucose and 10 mM HEPES (pH 7.4)) was added using a liquid injector and the YFP fluorescence was recorded for 5 seconds. The initial iodide inflow rate was determined from the initial slope of fluorescence by nonlinear regression, after injection the iodide.
row,Structure (SMILES),inhibition at 30 µM [%]
1,"O=C1OC(c2ccccc2)=NC1=Cc1ccc(OC(=O)c2ccco2)cc1 [F78, 4-((5-oxo-2-phenyloxazol-4(5H)-ylidene)methyl)phenylfuran-2-carboxylate]",1.7
2,"Cc1ncsc1C=C1N=C(c2ccc(C(C)(C)C)cc2)OC1=O [F8, 2-(4-(tert-butyl)phenyl)-4-((4-methylthiazol-5-yl)methylene)oxazol-5 (4H)-one]",72.5
3,"COC(=O)C(=Cc1ccco1)NC(=O)c1ccc(C(F)(F)F)cc1 [G17, Methyl 3-(furan-2-yl)-2-(4-(trifluoromethyl)benzamido)acrylate]",1.1
4,"N#Cc1ccc(C2=NC(=Cc3cccs3)C(=O)O2)cc1 [F5, 4-(5-Oxo-4-(thiophen-2-ylmethylene)-4,5-dihydrooxazol-2-yl)benzonitrile]",3.5
5,"Cc1ccc(C=C2N=C(c3ccc(S(=O)(=O)NC(C)(C)C)cc3)OC2=O)o1 [F126, N-(tert-butyl)-4-(4-((5-methylfuran-2-yl)methylene)-5-oxo-4,5-dihydrooxazol-2-yl) benzenesulfonamide]",2.5
6,"O=C1OC(c2cccs2)=NC1=Cc1ccc(Br)s1 [F118, 4-((5-Bromothiophen-2-yl)methylene)-2-(thiophen-2-yl)oxazol-5(4H)-one]",2.1
7,"O=C1OC(c2ccccc2)=NC1=Cc1cccn1Cc1ccccc1Cl [F65, 4-((1-(2-Chlorobenzyl)-1H-pyrrol-2-yl)methylene)-2-phenyloxazol-5(4H)-one]",1.7
8,"CCN(CC)S(=O)(=O)c1cccc(C2=NC(=Cc3cnn(C)c3)C(=O)O2)c1 [F131, N,N-diethyl-3-(4-((1-methyl-1H-pyrazol-4-yl)methylene)-5-oxo-4,5-dihydrooxazol-2-yl)benzenesulfonamide]",2.1
9,"O=C1OC(c2ccc(Br)cc2)=NC1=Cc1ccco1 [F50, 2-(4-Bromophenyl)-4-(furan-2-ylmethylene)oxazol-5 (4H)-one]",3.7
10,"O=C1OC(c2ccccc2)=NC1=Cc1cccs1 [F61, 2-Phenyl-4-(thiophen-2-ylmethylene)oxazol-5(4H)-one]",2.2
11,"Cc1cc(C)cc(C2=NC(=Cc3cccs3)C(=O)O2)c1 [F150, 2-(3,5-Dimethylphenyl)-4-(thiophen-2-ylmethylene)oxazol-5(4H)-one]",6.9
12,"CC(C)(C)NS(=O)(=O)c1ccc(C2=NC(=Cc3cccs3)C(=O)O2)cc1 [F35, N-(tert-butyl)-4-(5-oxo-4-(thiophen-2-ylmethylene)-4,5-dihydrooxazol-2-yl)benzene sulfonamide]",87.2
13,"CN(C)c1ccc(C=C2N=C(c3ccc4ccccc4c3)OC2=O)s1 [F105, 4-((5-(Dimethylamino)thiophen-2-yl)methylene)-2-(naphthalen-2-yl)oxazol-5(4H)-one]",3.1
14,"CC(=O)Nc1ccc(C2=NC(=Cc3cc(Br)cs3)C(=O)O2)cc1 [F106, N-(4-(4-((4-bromothiophen-2-yl)methylene)-5-oxo-4,5-dihydrooxazol-2-yl)phenyl)acetamide]",3.3
15,"COC(=O)C(=Cc1ccco1)NC(=O)c1ccc(Br)cc1 [G20, Methyl 2-(4-bromobenzamido)-3-(furan-2-yl)acrylate]",3.4
16,"O=C(O)C(=Cc1cccs1)NC(=O)c1ccc(Br)cc1 [G19, 2-(4-Bromobenzamido)-3-(thiophen-2-yl)acrylate]",3.9

row,Structure (SMILES),inhibition at 30 µM [%]
1,"O=C1OC(Cc2ccc(-c3ccccc3)cc2)=NC1=Cc1cccs1 [F28, 2-([1,1′-biphenyl]-4-ylmethyl)-4-(thiophen-2-ylmethylene)oxazol-5 (4H)-one]",2.2
2,"Cc1ccc(C2=NC(=Cc3cn(S(=O)(=O)N(C)C)c4ccccc34)C(=O)O2)cc1 [F76, N,N-Dimethyl-3-((5-oxo-2-(p-tolyl)oxazol-4(5H)-ylidene)methyl)-1H-indole-1-sulfonamide]",1.9
3,"Cc1ccc(C2=NC(=Cc3cccs3)C(=O)O2)s1 [F111, 2-(5-methylthiophen-2-yl)-4-(thiophen-2-ylmethylene)oxazol-5 (4H)-one]",30.8
4,"CC(C)(C)c1ccc(C(=O)Oc2ccc(C=C3N=C(c4ccccc4Cl)OC3=O)cc2)cc1 [F67, 4-((2-(2-Chlorophenyl)-5-oxooxazol-4(5H)-ylidene)methyl)phenyl4-(tert-butyl)benzoate]",3.2
5,"CC(C)(C)c1ccc(C2=NC(=Cc3cnn(-c4ccccc4)c3)C(=O)O2)cc1 [F124, 2-(4-(tert-butyl)phenyl)-4-((1-phenyl-1H-pyrazol-4-yl)methylene)oxazol-5 (4H)-one]",2
6,"CC(C)(C)c1ccc(C(=O)NC(=Cc2cccs2)C(=O)O)cc1 [G3, 2-(4-(tert-butyl)benzamido)-3-(thiophen-2-yl)acrylate]",55.6
7,"COc1ccc(C2=NC(=Cc3ccc(Cl)s3)C(=O)O2)cc1 [F99, 4-((5-Chlorothiophen-2-yl)methylene)-2-(4-methoxyphenyl)oxazol-5(4H)-one]",2.4
8,"O=C1OC(c2ccc(C(F)(F)F)cc2)=NC1=Cc1cccs1 [F1, 4-(thiophen-2-ylmethylene)-2-(4-(trifluoromethyl)phenyl)oxazol-5 (4H)-one]",2.6
9,"CCOc1ccc2nc(Sc3ccccc3)c(C=C3N=C(c4ccccc4)OC3=O)cc2c1 [F70, 4-((6-Ethoxy-2-(phenylthio)quinolin-3-yl)methylene)-2-phenyloxazol-5(4H)-one]",3.1
10,"COC(=O)C(=Cc1ccc[nH]1)NC(=O)c1ccc(C(C)(C)C)cc1 [G1, Methyl 2-(4-(tert-butyl)benzamido)-3-(1H-pyrrol-2-yl)acrylate]",2.9
11,"O=C1OC(c2ccc(Br)cc2)=NC1=Cc1cccs1 [F45, 2-(4-Bromophenyl)-4-(thiophen-2-ylmethylene)oxazol-5 (4H)-one]",4.6
12,"CC(C)c1ccc(C=C2N=C(c3cccc4ccccc34)OC2=O)cc1 [F62, 4-(4-Isopropylbenzylidene)-2-(naphthalen-1-yl)oxazol-5 (4H)-one]",2.4
13,"Cc1ccc(C=C2N=C(c3ccc(C)s3)OC2=O)s1 [F119, 2-(5-methylthiophen-2-yl)-4-((5-methylthiophen-2-yl)methylene)oxazol-5 (4H)-one]",1.7
14,"CCCc1ccc(C2=NC(=Cc3ccco3)C(=O)O2)cc1 [F146, 4-(Furan-2-ylmethylene)-2-(4-propylphenyl)oxazol-5(4H)-one]",26.1
15,CCCCc1ccc(C(=O)NC(=Cc2ccsc2)C(=O)O)cc1 [G29],81.7
16,"CSc1ccc(C=C2N=C(c3ccc(C(C)(C)C)cc3)OC2=O)cc1 [F43, 2-(4-(tert-butyl)phenyl)-4-(4-(methylthio)benzylidene)oxazol-5 (4H)-one]",5.4

# Same assay, conditions: compounds showing pendrin inhibitory activity of 50% or more at 30 μM; read-out: IC50
row,Structure (SMILES),IC50 [µM]
1,"Cc1ncsc1C=C1N=C(c2ccc(C(C)(C)C)cc2)OC1=O [F8, 2-(4-(tert-butyl)phenyl)-4-((4-methylthiazol-5-yl)methylene)oxazol-5 (4H)-one]",20.5 ± 1.69
2,"CC(C)(C)NS(=O)(=O)c1ccc(C2=NC(=Cc3cccs3)C(=O)O2)cc1 [F35, N-(tert-butyl)-4-(5-oxo-4-(thiophen-2-ylmethylene)-4,5-dihydrooxazol-2-yl)benzene sulfonamide]",11.6 ± 1.25
3,"CC(C)(C)c1ccc(C(=O)NC(=Cc2cccs2)C(=O)O)cc1 [G3, 2-(4-(tert-butyl)benzamido)-3-(thiophen-2-yl)acrylate]",26.8 ± 2.54
4,CCCCc1ccc(C(=O)NC(=Cc2ccsc2)C(=O)O)cc1 [G29],16.7 ± 1.87
